Data on four compounds can be found in patent US8183263B2 (priority 2007, dated 2012).

Each structure is given as a SMILES string. pEC50: −log10 of the molar value. Bounds are passed on as bounds.

The assay concerns HCV replicon. Kind of assay: HCV replicon replication assay (NPT level by captured ELISA). It counts as cell-based. The settings on record: Hepatitis C virus, 72 h; Huh-7 HCV replicon-containing cells, three days incubation; read-out: Activity (inhibition of HCV replicon replication). An outline of the steps:
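Huh-7 cells carrying HCV subgenomic replicon (NS3–NS5B, neo reporter) treated 3 days at 37 °C with 6 concentrations from 10 to 0.03 micromolar in G418-free medium, equal DMSO across wells. Replication measured on day four as NPTII level by in-cell captured ELISA on fixed cells; interferon alpha as positive control.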
(In general: A replicon is a self-replicating genome or part of one, used to study replication in cells.)
As to `Fc1sc(Nc2ccc(CCCCCCCCCl)c(C(F)(F)F)c2)nc1-c1cccnc1` [Cmp 231, N-(4-(8-chlorooctyl)-3-(trifluoromethyl)phenyl)-5-fluoro-4-(pyridin-3-yl)thiazol-2-amine], the pEC50 is above 6.00.
On to `CCCCCCC[C@H](C)Oc1ccc(Nc2nc(-c3cccnc3)c(F)s2)cc1C(F)(F)F` [Cmp 232, (S)-5-fluoro-N-(4-(nonan-2-yloxy)-3-(trifluoromethyl)phenyl)-4-(pyridin-3-yl)thiazol-2-amine], for which the pEC50 is above 6.00.
Take `CCCCCCC[C@@H](C)Oc1ccc(Nc2nc(-c3cccnc3)c(F)s2)cc1C(F)(F)F` [Cmp 233, (R)-5-fluoro-N-(4-(nonan-2-yloxy)-3-(trifluoromethyl)phenyl)-4-(pyridin-3-yl)thiazol-2-amine]: the pEC50 was above 6.00.
The figure for `CCCCOCCCCc1ccc(Nc2nc(-c3cccnc3)c(F)s2)cc1C(F)(F)F` [Cmp 234, N-(4-(4-butoxybutyl)-3-(trifluoromethyl)phenyl)-5-fluoro-4-(pyridin-3-yl)thiazol-2-amine] is above 6.00.
